According to paper PMC7168207, “Dibasic Derivatives of Phenylcarbamic Acid as Prospective Antibacterial Agents Interacting with Cytoplasmic Membrane” (Antibiotics, 2020):
Values joined by “and” are separate entries in the source; they are usually repeats but may differ in a detail not shown here. Equal values may be shown once. Read-outs that look alike come from different tables or passages of the source. Marks after values point to notes of the source that are not given here.

Legend:
[1] = test system: methicillin-resistant S. aureus 63718; test: MIC, broth microdilution; type: cell-based, Staphylococcus aureus; conditions: Staphylococcus aureus, read-out: MICs
In short: (§1)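 Modified broth microdilution; inoculum 5 × 10^5 CFU/mL final (from 0.5 McFarland PBS suspension). Media: CaMH broth for staph, BHI for VRE. Aerobic, 37 °C, overnight.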

[2] = test system: methicillin-resistant S. aureus SA 630; test: MIC, broth microdilution; type: cell-based, Staphylococcus aureus; conditions: Staphylococcus aureus, read-out: MICs
In short: as §1

E. faecalis ATCC 29212 = test: MIC, broth microdilution; type: cell-based, Enterococcus faecalis; conditions: Enterococcus faecalis, ATCC 29212 / ATCC 29213; EF = E. faecalis ATCC 29213
In short: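 Inocula are prepared at 0.5 McFarland in saline buffer from colonies grown overnight on 5% bovine blood agar, then diluted so wells hold 5 × 10^5 CFU/mL. Staphylococcal plates use CaMH; enterococcal plates use BHI. Incubation runs overnight in air at 37 °C.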

[3] = test system: vancomycin-resistant enterococci VRE 342B; test: MIC, broth microdilution; type: cell-based, Enterococcus faecalis; conditions: Enterococcus, read-out: MICs
In short: as §1

[4] = test system: vancomycin-resistant enterococci VRE 368; test: MIC, broth microdilution; type: cell-based, Enterococcus faecalis; conditions: Enterococcus, read-out: MICs
In short: as §1

[5] = test system: vancomycin-resistant enterococci VRE 725B; test: MIC, broth microdilution; type: cell-based, Enterococcus faecalis; conditions: Enterococcus, read-out: MICs
In short: as §1

[6] = test system: Candida albicans CCM 8261; test: minimum fungistatic concentration, RPMI 1640; type: cell-based; conditions: CCM8261, CA = C albicans CCM 8261, 48 h
Protocol: Fungistatic activity was tested similarly in RPMI (Roswell Park Memorial Institute) 1640 medium (Sigma, Pool, UK). […] A growth control and sterility control were included. The colonies of C. albicans grown overnight on Sabourad dextrose agar were suspended in sterile phosphate-buffered saline (PBS) to get cell density 0.5 McFarland. The inoculum was diluted to get a final concentration of 10^3 CFU/mL in the wells. Plates were inoculated and cultivated at 37 °C for 48 h. The minimum fungistatic concentration was visually evaluated as the lowest concentration of a tested compound, which inhibited 100% of yeast growth. 5-Flucytosin (Sigma, UK) was used as a positive control.

[7] = test system: S. aureus ATCC 29213 biofilm; test: biofilm inhibition assay (crystal violet); type: cell-based, Staphylococcus aureus; conditions: ≥80% inhibition of biofilm formation; for MBIC80 (minimum biofilm inhibitory concentration): 48 h
Protocol: The ability of compounds 1f, 1g, and 1h to inhibit biofilm growth and destroy the matured biofilm of S. aureus ATCC 29213 was investigated. The inhibitory activity was studied by the method with crystal violet. The activity to disrupt matured biofilm was evaluated as a decrease of metabolic activity using the MTT assay.
The plates were inoculated by inoculum of S. aureus ATCC 29213 grown in TSB + 2% glucose to exponential phase. Before the inoculation of the plate, the original inoculum was diluted to 1 McFarland and then 1:100 in fresh TSB + 2% glucose, to reach the final concentrations in the wells of […]. […] The plates were incubated at 37 °C for 48 h. After incubation, the contents of the wells were removed, and the plates were washed three times by sterile PBS. After drying, 125 μL of 0.5% crystal violet was added to each well and the plates were stained at room temperature for 20 min. Then the dye was removed, and the plates were washed three times by sterile PBS. The colored biofilm was detached from the wells using 33% solution of acetic acid. The absorbance at 595 nm was measured. As a blank, a non-inoculated plate treated in the same way was used. […] The minimum biofilm inhibitory concentration was the lowest concentration of the compounds, which inhibited the growth of 80% bacteria compared to the growth control. The experiment was made in duplicate and repeated at least three times.

[8] = parameters: method as in PMID 30274224; conditions: methanolic solutions, c = 8.0 × 10^−5 M; cited from earlier work
MRSA 63718 = test: time-kill study; type: cell-based, Staphylococcus aureus; conditions: MRSA1
Description: (§2) Time-kill studies are used to evaluate the dynamics of antibacterial activity. As mentioned above, a pre-test to determine minimum bactericidal concentration (MBC) by sub-cultivation of aliquots on agar was made (see Section 3.4). […] Time-kill studies were made with methicillin-susceptible S. aureus ATCC 29213 and methicillin-resistant MRSA 63718, vancomycin-susceptible E. faecalis ATCC 29212, and all three VRE isolates. Vancomycin was used as a control (Table 6).
(§3) The method of time-kill curves was used to study the bactericidal effect of selected compounds. […] The experiment was performed with S. aureus ATCC 29213, MRSA 63718, E. faecalis ATCC 29212, and all VRE isolates. […] The tubes were inoculated by bacterial inoculum in the exponential phase of growth to get a final concentration of 7.5 × 10^6 CFU/mL. The tubes were incubated statically at 37 °C. Immediately after inoculation and after 4, 6, 8, and 24 h, 100 µL of the sample was serially diluted (1:10) in PBS. Then, 2 × 20 µL from each dilution were put onto a Mueller–Hinton agar plate and cultivated at 37 °C for 24 h. After incubation, CFUs of dilutions containing 5–50 colonies were counted. Results were expressed as a decrease of log10(CFU) in each time compared to the starting inoculum. Bactericidal effect is defined as a −3log decrease of CFU/mL compared to the growth control in time 0. The test was made in duplicate on two separate occasions, and the results were averaged. The growth curves with error bars are shown in Figures S1 and S2 in Supplementary Materials.

S. aureus ATCC 29213 = test: time-kill study; type: cell-based, Staphylococcus aureus; conditions: SA
Description: as §2, §3

| MIC ([1]; MRSA1 = S. aureus 63718) | MIC ([2]; MRSA2 = SA 630) | MIC (E. faecalis ATCC 29212) | MIC ([3]; VRE1 = VRE 342B) | MIC ([4]; VRE2 = VRE 368) | MIC ([5]; VRE3 = VRE 725B) | MIC [6] | SMILES | minimum biofilm inhibitory concentration relative to MIC against planktonic cells [7] | MBIC80 (minimum biofilm inhibitory concentration) [7] [µg/mL] | log ε2 (Ch-T) [8] | Log10 Difference in CFU/mL from Inoculum (MRSA 63718; 1 × MIC, 4 h) [log10 CFU/mL] | Log10 Difference in CFU/mL from Inoculum (MRSA 63718; 1 × MIC, 6 h) [log10 CFU/mL] | Log10 Difference in CFU/mL from Inoculum (MRSA 63718; 1 × MIC, 8 h) [log10 CFU/mL] | Log10 Difference in CFU/mL from Inoculum (MRSA 63718; 1 × MIC, 24 h) [log10 CFU/mL] | Log10 Difference in CFU/mL from Inoculum (MRSA 63718; 2 × MIC, 4 h) [log10 CFU/mL] | Log10 Difference in CFU/mL from Inoculum (MRSA 63718; 2 × MIC, 6 h) [log10 CFU/mL] | Log10 Difference in CFU/mL from Inoculum (MRSA 63718; 2 × MIC, 8 h) [log10 CFU/mL] | Log10 Difference in CFU/mL from Inoculum (MRSA 63718; 2 × MIC, 24 h) [log10 CFU/mL] | Log10 Difference in CFU/mL from Inoculum (MRSA 63718; 4 × MIC, 4 h) | Log10 Difference in CFU/mL from Inoculum (MRSA 63718; 4 × MIC, 6 h) | also measured |
| --- | --- | --- | --- | --- | --- | --- | --- | --- | --- | --- | --- | --- | --- | --- | --- | --- | --- | --- | --- | --- | --- |
| 16 µg/mL and 31.6 µM | 32 µg/mL and 63.2 µM | 32 µg/mL and 63.2 µM | 16 µg/mL and 31.6 µM | 16 µg/mL and 31.6 µM | 16 µg/mL and 31.6 µM | 128 µg/mL and 252 µM | CCCCCOc1cccc(NC(=O)OC(CN(CCC)CCC)CN2CCCC2)c1.Cl.Cl (stereo not shown) [1f, 1-[3-(dipropylammonio)-2-({[3-(pentyloxy)phenyl]carbamoyl}-oxy)propyl]pyrrolidinium dichloride] | two-fold higher | 32 | 4.27 |  |  |  |  |  |  |  |  |  |  |  |
| 8 µg/mL and 15.4 µM | 16 µg/mL and 30.8 µM | 16 µg/mL and 30.8 µM | 8 µg/mL and 15.4 µM | 8 µg/mL and 15.4 µM | 8 µg/mL and 15.4 µM | 16 µg/mL and 30.8 µM | CCCCCCOc1cccc(NC(=O)OC(CN(CCC)CCC)CN2CCCC2)c1.Cl.Cl (stereo not shown) [1g, 1-[3-(dipropylammonio)-2-({[3-(hexyloxy)phenyl]carbamoyl}oxy)propyl]pyrrolidinium dichloride] | equal to minimum inhibitory concentration against planktonic cells | 8 | 4.13 | 0.00 | 0.66 | 1.00 | 1.99 | −1.33 | −0.93 | −0.26 | 1.29 | −2.57 * log10 CFU/mL | −1.99 * log10 CFU/mL | Log10 Difference in CFU/mL from Inoculum (MRSA 63718; 4 × MIC, 8 h): −1.26 * log10 CFU/mL; Log10 Difference in CFU/mL from Inoculum (MRSA 63718; 4 × MIC, 24 h): 1.21 log10 CFU/mL; Log10 Difference in CFU/mL from Inoculum (S. aureus ATCC 29213; 1 × MIC, 4 h): 1.54 log10 CFU/mL; Log10 Difference in CFU/mL from Inoculum (S. aureus ATCC 29213; 1 × MIC, 6 h): 1.98 log10 CFU/mL; Log10 Difference in CFU/mL from Inoculum (S. aureus ATCC 29213; 1 × MIC, 8 h): 2.33 log10 CFU/mL; Log10 Difference in CFU/mL from Inoculum (S. aureus ATCC 29213; 1 × MIC, 24 h): 2.74 log10 CFU/mL; Log10 Difference in CFU/mL from Inoculum (S. aureus ATCC 29213; 2 × MIC, 4 h): 0.87 log10 CFU/mL; Log10 Difference in CFU/mL from Inoculum (S. aureus ATCC 29213; 2 × MIC, 6 h): 0.98 log10 CFU/mL; Log10 Difference in CFU/mL from Inoculum (S. aureus ATCC 29213; 2 × MIC, 8 h): 1.26 log10 CFU/mL; Log10 Difference in CFU/mL from Inoculum (S. aureus ATCC 29213; 2 × MIC, 24 h): 2.24 log10 CFU/mL; Log10 Difference in CFU/mL from Inoculum (S. aureus ATCC 29213; 4 × MIC, 4 h): −0.26 log10 CFU/mL; Log10 Difference in CFU/mL from Inoculum (S. aureus ATCC 29213; 4 × MIC, 6 h): −0.04 log10 CFU/mL; Log10 Difference in CFU/mL from Inoculum (S. aureus ATCC 29213; 4 × MIC, 8 h): 0.10 log10 CFU/mL; Log10 Difference in CFU/mL from Inoculum (S. aureus ATCC 29213; 4 × MIC, 24 h): 1.85 log10 CFU/mL |
|  |  |  |  |  |  |  | CN[C@H](CC(C)C)C(=O)N[C@H]1C(=O)N[C@@H](CC(N)=O)C(=O)N[C@H]2C(=O)N[C@H]3C(=O)N[C@H](C(=O)N[C@H](C(=O)O)c4cc(O)cc(O)c4-c4cc3ccc4O)[C@H](O)c3ccc(c(Cl)c3)Oc3cc2cc(c3O[C@@H]2O[C@H](CO)[C@@H](O)[C@H](O)[C@H]2O[C@H]2C[C@](C)(N)[C@H](O)[C@H](C)O2)Oc2ccc(cc2Cl)[C@H]1O [VAN, vancomycin, reference compound] |  |  |  | −1.00 | −1.50 | −1.76 | 0.55 | −0.91 | −1.43 | −1.97 | −5.18 | −1.31 log10 CFU/mL | −1.75 log10 CFU/mL | MIC [1]: 2 µg/mL and 1.38 µM; MIC [2]: 1 µg/mL and 0.69 µM; MIC ([3]; VRE): 512 µg/mL and 353 µM; MIC ([4]; VRE): 512 µg/mL and 353 µM; MIC ([5]; VRE): 1020 µg/mL and 706 µM; Log10 Difference in CFU/mL from Inoculum (MRSA 63718; 4 × MIC, 8 h): −3.89 log10 CFU/mL; Log10 Difference in CFU/mL from Inoculum (MRSA 63718; 4 × MIC, 24 h): −5.19 log10 CFU/mL; Log10 Difference in CFU/mL from Inoculum (S. aureus ATCC 29213; 1 × MIC, 4 h): −0.37 log10 CFU/mL; Log10 Difference in CFU/mL from Inoculum (S. aureus ATCC 29213; 1 × MIC, 6 h): −0.65 log10 CFU/mL; Log10 Difference in CFU/mL from Inoculum (S. aureus ATCC 29213; 1 × MIC, 8 h): −0.84 log10 CFU/mL; Log10 Difference in CFU/mL from Inoculum (S. aureus ATCC 29213; 1 × MIC, 24 h): 2.90 log10 CFU/mL; Log10 Difference in CFU/mL from Inoculum (S. aureus ATCC 29213; 2 × MIC, 4 h): −0.26 log10 CFU/mL; Log10 Difference in CFU/mL from Inoculum (S. aureus ATCC 29213; 2 × MIC, 6 h): −0.59 log10 CFU/mL; Log10 Difference in CFU/mL from Inoculum (S. aureus ATCC 29213; 2 × MIC, 8 h): −1.12 log10 CFU/mL; Log10 Difference in CFU/mL from Inoculum (S. aureus ATCC 29213; 2 × MIC, 24 h): −3.67 log10 CFU/mL; Log10 Difference in CFU/mL from Inoculum (S. aureus ATCC 29213; 4 × MIC, 4 h): −0.27 log10 CFU/mL; Log10 Difference in CFU/mL from Inoculum (S. aureus ATCC 29213; 4 × MIC, 6 h): −0.38 log10 CFU/mL; Log10 Difference in CFU/mL from Inoculum (S. aureus ATCC 29213; 4 × MIC, 8 h): −1.18 log10 CFU/mL; Log10 Difference in CFU/mL from Inoculum (S. aureus ATCC 29213; 4 × MIC, 24 h): −5.47 log10 CFU/mL |
